# Results taken from PubChem BioAssay (NCI).
#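 These data come from cells grown in 96-well plates and exposed to compound for 48 hours at five concentrations. GI50 is the concentration that inhibits growth by half. TGI: concentration producing complete growth inhibition.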
# What was measured:
# Assay in all cases: inhibition of tumour cell growth, NCI panel, 48 h
# [1] = tested on: CCRF-CEM leukemia
# [2] = tested on: NCI-H522 lung
# [3] = tested on: M14 melanoma
# [4] = tested on: U251 CNS
# [5] = tested on: SF-295 CNS
# [6] = tested on: HOP-92 NSCLC
# [7] = tested on: RPMI-8226 leukemia
# [8] = tested on: UACC-257 melanoma
# [9] = tested on: NCI/ADR-RES ovarian
# [10] = tested on: SK-OV-3 ovarian
compound,measurement,setting,value
CC(=O)OCC1OC(OCc2ccccc2)C(Br)C(OC(C)=O)C1OC(C)=O (configuration not stated),TGI,[1],> 100 µM
same,TGI,[2],> 100 µM
same,TGI,[3],> 100 µM
same,TGI,[4],> 100 µM
same,TGI,[5],> 100 µM
same,TGI,[6],> 100 µM
same,TGI,[7],> 100 µM
same,TGI,[8],> 100 µM
CCN(CC)CCN1C(=O)C2C3C(=O)CC(C)(CC3C)C2C1=O (configuration not stated),GI50,[1],> 100 µM
same,TGI,[1],> 100 µM
same,GI50,[2],> 100 µM
same,TGI,[2],> 100 µM
same,GI50,[3],> 100 µM
same,TGI,[3],> 100 µM
same,GI50,[9],> 100 µM
same,TGI,[9],> 100 µM
same,GI50,[4],> 100 µM
same,TGI,[4],> 100 µM
same,GI50,[5],> 100 µM
same,TGI,[5],> 100 µM
same,GI50,[6],> 100 µM
same,TGI,[6],> 100 µM
same,GI50,[8],> 100 µM
same,TGI,[8],> 100 µM
same,GI50,[10],> 100 µM
same,TGI,[10],> 100 µM
Clc1ccc(OCc2nnc3n2N=C(c2ccc(Br)cc2)CS3)cc1,TGI,[1],> 100 µM
same,TGI,[4],> 100 µM
same,TGI,[5],37.7 µM
same,TGI,[6],41 µM
same,TGI,[7],> 100 µM
same,TGI,[8],83.3 µM
same,TGI,[10],34.6 µM
COc1ccc(S(=O)(=O)N[C@H](C(=O)O)c2ccccc2)cc1,TGI,[1],> 100 µM
same,TGI,[3],> 100 µM
same,TGI,[4],> 100 µM
same,TGI,[5],> 100 µM
same,TGI,[7],> 100 µM
same,TGI,[8],> 100 µM
same,TGI,[10],> 100 µM
COC(=O)C1(C)CC2C(C)(CCC3(C)C4=CC=C5C(=CC(=O)C(O)=C5C)C4(C)CCC23C)CC1O (configuration not stated),TGI,[1],0.538 µM
same,TGI,[2],0.54 µM
same,TGI,[3],3.26 µM
same,TGI,[9],2.93 µM
same,TGI,[5],3.43 µM
same,TGI,[6],2.82 µM
same,TGI,[8],4.28 µM
same,TGI,[10],4.13 µM
COC1[C@H](NC(=O)OC(C)(C)C)C(=O)N1Cc1ccccc1 (some centres not stated),TGI,[1],> 100 µM
same,TGI,[3],> 100 µM
same,TGI,[4],> 100 µM
same,TGI,[5],> 100 µM
same,TGI,[6],> 100 µM
same,TGI,[7],> 100 µM
same,TGI,[8],> 100 µM
same,TGI,[10],> 100 µM
c1ccc(-c2n(Cc3ccc4ccccc4c3)cc[n+]2Cc2ccc3ccccc3c2)cc1,GI50,[1],1.56 µM
same,TGI,[1],4.06 µM
same,GI50,[9],13.9 µM
same,TGI,[9],35.4 µM
same,GI50,[5],1.26 µM
same,TGI,[5],2.55 µM
same,GI50,[10],1.49 µM
same,TGI,[10],2.89 µM
O=C(CCl)Nc1cc(Cl)c(Cl)cc1Cl,TGI,[1],5.99 µM
same,TGI,[2],2.02 µM
same,TGI,[3],2.96 µM
same,TGI,[9],5.31 µM
same,TGI,[4],3.94 µM
same,TGI,[5],> 10 µM
same,TGI,[7],> 10 µM
same,TGI,[8],3.24 µM
same,TGI,[10],> 10 µM
COc1cc(/C=C/c2ccc(Br)cc2)cc(OC)c1OC,TGI,[1],> 88 µM
same,TGI,[2],46.1 µM
same,TGI,[3],87.6 µM
same,TGI,[4],30.7 µM
same,TGI,[5],40.2 µM
same,TGI,[6],72.3 µM
same,TGI,[7],20.8 µM
same,TGI,[8],> 95.5 µM
same,TGI,[10],> 89.9 µM
COc1cc(-c2ccc(NC(=O)SCCC(=O)O)cc2OC)ccc1NC(=O)SCCC(=O)O,TGI,[1],> 100 µM
same,TGI,[2],> 100 µM
same,TGI,[3],> 100 µM
same,TGI,[4],> 100 µM
same,TGI,[5],> 100 µM
same,TGI,[7],> 100 µM
same,TGI,[8],> 100 µM
O=S(=O)(c1ccccc1)N1CN2CN(C1)CN(S(=O)(=O)c1ccccc1)C2,TGI,[3],> 100 µM
same,TGI,[9],> 100 µM
same,TGI,[4],> 100 µM
same,TGI,[5],> 100 µM
same,TGI,[6],> 100 µM
same,TGI,[7],> 100 µM
same,TGI,[8],> 100 µM
same,TGI,[10],> 100 µM
Cc1cc(C)c2c(c1)N[S@@](=O)S2,TGI,[1],61.3 µM
same,TGI,[2],31.9 µM
same,TGI,[3],33.2 µM
same,TGI,[4],31.1 µM
same,TGI,[5],> 100 µM
same,TGI,[6],> 100 µM
same,TGI,[7],88.5 µM
same,TGI,[8],35.7 µM
same,TGI,[10],90.6 µM
COC1OC(CBr)C(OC(=O)c2ccccc2)C(OS(=O)(=O)c2ccc(C)cc2)C1Br (configuration not stated),TGI,[1],> 100 µM
same,TGI,[2],> 100 µM
same,TGI,[3],> 100 µM
same,TGI,[4],> 100 µM
same,TGI,[5],> 100 µM
same,TGI,[6],> 100 µM
same,TGI,[7],> 100 µM
same,TGI,[8],> 100 µM
O=C1C2c3[nH]c4ccccc4c3C3CCCCCC3C2C(=O)N1c1ccccc1 (configuration not stated),TGI,[1],23.1 µM
same,TGI,[2],> 100 µM
same,TGI,[3],> 49.3 µM
same,TGI,[4],> 45.6 µM
same,TGI,[5],> 65.5 µM
same,TGI,[6],74.7 µM
same,TGI,[7],> 100 µM
same,TGI,[8],84.6 µM
same,TGI,[10],34.1 µM
CCCCCCCCCCCCCCCCCCOc1ccccc1CC(=O)OCC[N+](CC)(CC)CC,GI50,[1],1.48 µM
same,TGI,[1],13.1 µM
same,GI50,[2],1.53 µM
same,TGI,[2],6.84 µM
same,GI50,[3],1.53 µM
same,TGI,[3],5.4 µM
same,GI50,[9],7.58 µM
same,TGI,[9],17.5 µM
same,GI50,[4],1.24 µM
same,TGI,[4],3.56 µM
same,GI50,[5],1.27 µM
same,TGI,[5],5.11 µM
same,GI50,[6],1.1 µM
same,TGI,[6],3.52 µM
same,GI50,[8],1.42 µM
same,TGI,[8],5.1 µM
same,GI50,[10],3 µM
same,TGI,[10],12.1 µM
CC(=O)[CH-]C(=O)c1ccccc1.CC(=O)[CH-]C(=O)c1ccccc1.CC(C)CCC[C@H](C)C1CCC2[C@@H]3CC=C4C[C@@H]([O-])CC[C@]4(C)C3CC[C@@]21C.CC(C)CCC[C@H](C)C1CCC2[C@@H]3CC=C4C[C@@H]([O-])CC[C@]4(C)C3CC[C@@]21C.Cl.[Ti+4] (some centres not stated),GI50,[1],> 25 µM
same,TGI,[1],> 25 µM
same,GI50,[2],> 25 µM
same,TGI,[2],> 25 µM
same,GI50,[3],> 25 µM
same,TGI,[3],> 25 µM
same,GI50,[4],> 25 µM
same,TGI,[4],> 25 µM
same,GI50,[5],> 25 µM
same,TGI,[5],> 25 µM
same,GI50,[7],> 25 µM
same,TGI,[7],> 25 µM
same,GI50,[8],> 25 µM
same,TGI,[8],> 25 µM
same,GI50,[10],> 25 µM
same,TGI,[10],> 25 µM
COc1cc2c(cc1O)CN1CCC23C=C[C@@H](O)CC13 (some centres not stated),TGI,[1],81.3 µM
same,TGI,[2],> 100 µM
same,TGI,[3],> 100 µM
same,TGI,[4],> 100 µM
same,TGI,[5],> 100 µM
same,TGI,[6],> 100 µM
same,TGI,[7],> 100 µM
same,TGI,[8],> 100 µM
same,TGI,[10],> 100 µM
COC(=O)C1C(=O)O[C@@H](c2ccc(OC)c(OC)c2OC)C1C(=O)OC (mixture of isomers),TGI,[1],> 100 µM
same,TGI,[2],> 100 µM
same,TGI,[3],> 100 µM
same,TGI,[4],> 100 µM
same,TGI,[5],> 100 µM
same,TGI,[6],> 100 µM
same,TGI,[7],> 100 µM
same,TGI,[8],> 100 µM
same,TGI,[10],> 100 µM
CC1CCC(=O)C(C(O)CC2CC(=O)N(c3ccccc3)C(=O)C2)C1 (configuration not stated),TGI,[1],> 100 µM
same,TGI,[2],> 100 µM
same,TGI,[3],> 100 µM
same,TGI,[4],> 100 µM
same,TGI,[5],> 100 µM
same,TGI,[6],> 100 µM
same,TGI,[7],> 100 µM
same,TGI,[8],> 100 µM
same,TGI,[10],> 100 µM
Cc1cc(=O)n(-c2c(C)cccc2Cl)c(/C=C(\O)c2ccncc2)n1,TGI,[1],> 100 µM
same,TGI,[2],> 100 µM
same,TGI,[3],> 100 µM
same,TGI,[4],> 100 µM
same,TGI,[5],> 100 µM
same,TGI,[6],> 100 µM
same,TGI,[8],> 100 µM
same,TGI,[10],> 100 µM
